Data taken from patent US20200022964A1, “COMPOSITIONS AND METHODS FOR TREATMENT OF INFLAMMATORY AUTOIMMUNE DISEASES” (New York University, priority 2018, published 2020).

Legend:
[1] = tested on: TNF-α-activated NF-κB reporter gene; test: NF-κB luciferase reporter in control and cPLA2 knockout Raw264.7 cells; type: cell-based
Protocol: Screening FDA approved drugs in vitro. NF-κB-bla THP-1 cell line (K1662, Invitrogen) was cultured in 96-well plates and FDA approved drugs (10 μM, L1300, Selleckchem) were added and cultured overnight. Next day, cells were incubated with TNF-α (10 ng/ml, PHC3015, Invitrogen) for 6 hours and LiveBLAzer™ FRET-B/G Loading Kit with CCF2-AM (K1095, Invitrogen) was used to detect the β-lactamase activity via SpectraMax i3x system (5025027A Molecular Devices) with excitation wavelength at 409 nm and emission wavelengths at 520 nm or 470 nm. This process was performed in triplicate. Subsequently, the drugs from first screening that could inhibit TNF-α induced NF-κB activity underwent further screening by NF-κB luciferase assay. After transfection with NF-κB luciferase reporter gene and Renilla plasmids for 8 hours, cells were treated with drugs (10 μM) overnight, followed by TNF-α (10 ng/ml) stimulation for 6 hours, then bioluminescence was measured by Dual-Luciferase® Reporter Assay kit (E1910, Promega). The data were analyzed by Graphpad Prism software (GraphPad Software, San Diego, Calif.).
Knock out of cPAL2 by CRISPR-Cas9. Knockout cells were generated in accordance with a previously published protocol. gRNA was inserted into the lentiCRISPR v2 vector. Packaging the inserted vector into lentivirus was completed by co-transfecting the lentiCRISPR v2, VSVG and ΔR6.7 in 293T cells. After packaging, we transfected the virus into RAW264.7 cells over 8 hours. Puromycin (2 μg/ml) was used to select the stably transfected RAW264.7 cells

NF-κB p65 = details: TNF-α 10 ng/mL; FFD 10 μM, TFD 1 μM
cPLA2 = target: T1, cPLA2 (Mus musculus, UniProt P47713); test: Western blot of TNF activated phosphorylation of cPLA2 on Ser-505 in BMDMs; type: cell-based, mice; parameters: endogenous in cells; host or cells: mouse bone marrow derived macrophages (BMDMs); details: TNF-α 10 ng/mL; FFD 10 μM
T1 sequence (P47713 1-748): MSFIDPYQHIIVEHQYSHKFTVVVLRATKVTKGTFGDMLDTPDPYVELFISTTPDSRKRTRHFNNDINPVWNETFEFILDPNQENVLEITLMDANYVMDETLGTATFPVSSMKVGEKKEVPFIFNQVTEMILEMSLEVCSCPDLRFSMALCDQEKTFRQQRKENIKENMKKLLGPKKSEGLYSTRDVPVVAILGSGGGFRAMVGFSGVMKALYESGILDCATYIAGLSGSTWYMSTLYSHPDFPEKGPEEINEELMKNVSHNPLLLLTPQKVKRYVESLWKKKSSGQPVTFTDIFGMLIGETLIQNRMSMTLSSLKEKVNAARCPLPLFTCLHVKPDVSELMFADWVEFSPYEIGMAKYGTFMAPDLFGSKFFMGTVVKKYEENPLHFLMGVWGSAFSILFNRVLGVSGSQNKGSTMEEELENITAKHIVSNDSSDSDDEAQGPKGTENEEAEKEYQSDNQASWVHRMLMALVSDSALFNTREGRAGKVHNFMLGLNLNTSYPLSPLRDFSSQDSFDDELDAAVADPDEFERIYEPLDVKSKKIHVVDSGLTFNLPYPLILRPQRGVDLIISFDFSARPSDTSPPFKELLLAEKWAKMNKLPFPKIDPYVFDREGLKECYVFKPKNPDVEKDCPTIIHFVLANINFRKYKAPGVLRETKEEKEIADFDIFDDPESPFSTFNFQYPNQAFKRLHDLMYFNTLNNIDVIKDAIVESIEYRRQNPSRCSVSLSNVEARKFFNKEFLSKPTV
Protocol: Primary bone marrow derived macrophages (BMDMs) extraction. BMDMs were isolated from C57BL/6 and TNF-tg mice. After mice were sacrificed by cervical dislocation, the tibia and femur were isolated and both ends of the bones were cut to open the medullary cavity. Bone marrow cells were collected by centrifuge at 13000 g for 90 seconds and seeded in 6-well plates. Prior to their use in experiments, M-CSF (10 ng/ml, 576406, Biolegend) was added for 6 days to the BMDM culture medium.
Western blot. After protein samples were prepared, samples were separated by SDS-PAGE and transferred to a nitrocellulose (NC) membrane (162-0115, BIO-RAD) using a wet transfer system. Membrane was blocked in 5% (w/v) non-fat milk in TBST for half an hour at room temperature, followed by incubation with appropriate primary antibody overnight at 4° C. After washing, appropriate secondary antibody was added for 1 hour at room temperature. The bands on the membrane were developed by chemiluminescent (ECL) substrate and visualized by GelDoc system.

In the case of `CC(C)(C(=O)O)c1ccc(C(O)CCCN2CCC(C(O)(c3ccccc3)c3ccccc3)CC2)cc1` (centres unmarked) [fexofenadine], the “inhibition of TNF-α-activated NF-κB reporter gene in cPLA2 knockout cells” value ([1]; cPLA2 knockout cells) is reported as “lost its inhibition”, the “anti-TNF/NF-κB activity in cPLA2 knockout cells transfected with cPLA2 S505A” value ([1]; point mutant Ser-505-Ala) is reported as “could not rescue” and the “anti-TNF/NF-κB activity in cPLA2 knockout cells transfected with a cPLA2 expression plasmid” value ([1]; re-established expression of cPLA2) is reported as “reinstated”. For the same molecule, the “TNF-α-induced nuclear translocation and DNA-binding activity of p65” value (NF-κB p65) was “inhibited” and the “phosphorylation of cPLA2 on Ser-505” value (cPLA2) was “abolished”.
